Measurements as given in ChEMBL document CHEMBL1138487, “Tacripyrines, the first tacrine-dihydropyridine hybrids, as multitarget-directed ligands for the treatment of Alzheimer's disease” (J Med Chem, 2009).
pIC50: −log10 of the molar value.

Tests used:
Cholinesterase = Cholinesterase (Homo sapiens, UniProt P06276)
Description: Inhibition of human serum BChE by Ellman's method

Acetylcholinesterase [1] = target: Acetylcholinesterase (Electrophorus electricus, UniProt O42275)
Description: Inhibition of electric eel AChE by Rappaport method

Acetylcholinesterase [2] = target: T1, Acetylcholinesterase (Homo sapiens, UniProt P22303)
Description: Inhibition of human serum AChE by Ellman's method

in vitro = conditions: pig, PAMPA
Description: Permeability across porcine brain lipid coated polyvinylidene fluoride membrane by PAMPA

Acetylcholinesterase [3] = target: T1, Acetylcholinesterase; conditions: 100 uM
Description: Inhibition of human AChE-induced amyloid beta (1-40) aggregation at 100 uM after 24 hrs by thioflavin T fluorescence method

[4] = Inhibition of amyloid beta (1-42) self-aggregation at 1:1 drug to amyloid beta (1 to 42) ratio after 24 hrs by thioflavin T fluorescence method; conditions: concentration not given here

Chain of Cholinesterase (P06276 whole entry): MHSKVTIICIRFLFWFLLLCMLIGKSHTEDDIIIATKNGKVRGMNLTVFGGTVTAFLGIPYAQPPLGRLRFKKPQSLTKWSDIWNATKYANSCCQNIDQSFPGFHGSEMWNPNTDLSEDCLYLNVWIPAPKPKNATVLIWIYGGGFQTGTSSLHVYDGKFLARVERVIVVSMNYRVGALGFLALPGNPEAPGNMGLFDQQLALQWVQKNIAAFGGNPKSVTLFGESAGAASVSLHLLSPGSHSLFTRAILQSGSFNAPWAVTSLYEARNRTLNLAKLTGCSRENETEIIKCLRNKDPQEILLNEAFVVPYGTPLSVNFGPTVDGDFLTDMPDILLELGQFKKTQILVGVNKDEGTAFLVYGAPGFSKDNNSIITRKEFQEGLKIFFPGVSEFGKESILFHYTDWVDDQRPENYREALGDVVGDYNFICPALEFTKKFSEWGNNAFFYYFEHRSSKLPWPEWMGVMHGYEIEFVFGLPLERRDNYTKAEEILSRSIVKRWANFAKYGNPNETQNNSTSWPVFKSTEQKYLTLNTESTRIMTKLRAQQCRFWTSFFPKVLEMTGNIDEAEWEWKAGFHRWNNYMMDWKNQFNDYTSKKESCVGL
Chain of Acetylcholinesterase (Electrophorus electricus, UniProt O42275) (O42275 whole entry): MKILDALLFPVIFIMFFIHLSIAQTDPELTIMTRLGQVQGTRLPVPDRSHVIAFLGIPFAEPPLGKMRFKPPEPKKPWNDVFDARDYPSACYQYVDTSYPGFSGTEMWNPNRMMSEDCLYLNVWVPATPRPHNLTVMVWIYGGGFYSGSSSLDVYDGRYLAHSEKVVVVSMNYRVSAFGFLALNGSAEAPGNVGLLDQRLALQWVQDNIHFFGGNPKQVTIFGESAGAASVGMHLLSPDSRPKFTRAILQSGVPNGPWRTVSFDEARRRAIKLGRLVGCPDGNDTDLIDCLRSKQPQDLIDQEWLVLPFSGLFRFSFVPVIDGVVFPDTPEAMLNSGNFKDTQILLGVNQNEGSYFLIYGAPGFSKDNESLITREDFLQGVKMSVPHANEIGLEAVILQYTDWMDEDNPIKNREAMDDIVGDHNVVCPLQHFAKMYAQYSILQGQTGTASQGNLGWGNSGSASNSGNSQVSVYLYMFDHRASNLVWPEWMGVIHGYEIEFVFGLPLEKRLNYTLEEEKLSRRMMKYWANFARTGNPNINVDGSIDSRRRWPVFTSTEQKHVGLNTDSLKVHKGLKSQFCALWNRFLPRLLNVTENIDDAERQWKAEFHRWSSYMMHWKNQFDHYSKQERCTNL
T1 sequence (P22303 whole entry): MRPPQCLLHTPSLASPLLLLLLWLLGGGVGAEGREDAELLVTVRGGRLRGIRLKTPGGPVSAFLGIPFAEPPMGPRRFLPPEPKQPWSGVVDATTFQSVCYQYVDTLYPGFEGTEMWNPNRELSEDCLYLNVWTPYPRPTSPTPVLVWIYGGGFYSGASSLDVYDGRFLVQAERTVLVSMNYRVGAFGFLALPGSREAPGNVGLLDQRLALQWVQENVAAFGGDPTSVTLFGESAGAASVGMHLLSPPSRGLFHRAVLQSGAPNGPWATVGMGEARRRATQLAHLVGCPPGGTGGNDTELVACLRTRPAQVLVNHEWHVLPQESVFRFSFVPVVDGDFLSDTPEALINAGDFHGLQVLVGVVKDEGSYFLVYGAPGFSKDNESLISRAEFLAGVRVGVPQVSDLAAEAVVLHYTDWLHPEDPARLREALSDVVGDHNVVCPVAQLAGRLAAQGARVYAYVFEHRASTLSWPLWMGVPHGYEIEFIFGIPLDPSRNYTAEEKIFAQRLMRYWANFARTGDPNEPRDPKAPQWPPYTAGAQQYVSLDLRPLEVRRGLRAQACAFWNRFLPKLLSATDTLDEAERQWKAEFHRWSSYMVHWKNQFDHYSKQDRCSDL

Compound | pIC50 (Cholinesterase) | pIC50 (Acetylcholinesterase [1]) | pIC50 (Acetylcholinesterase [2]) | Papp (in vitro) | further results
CCOC(=O)C1=C(C)Nc2nc3c(c(N)c2C1c1ccncc1)CCCC3 (stereo unspecified) | < 4.00 | 6.66 | 6.65 | – | –
C[C@]12CCC(=O)C=C1CC[C@@H]1[C@@H]2[C@@H](O)C[C@]2(C=O)[C@@H](C(=O)CO)CC[C@@H]12 [ALDOSTERONE] | – | – | – | 0.6 ×10⁻⁶ cm/s | –
CN(C)CCCN1c2ccccc2Sc2ccccc21 [PROMAZINE] | – | – | – | 7.7 ×10⁻⁶ cm/s | –
COc1ccc(CCN2CCC(Nc3nc4ccccc4n3Cc3ccc(F)cc3)CC2)cc1 [ASTEMIZOLE] | – | – | – | 6.1 ×10⁻⁶ cm/s | –
CC(=O)[C@H]1CC[C@H]2[C@@H]3CCC4=CC(=O)CC[C@]4(C)[C@H]3CC[C@]12C [PROGESTERONE] | – | – | – | 6.6 ×10⁻⁶ cm/s | –
CCOC(=O)C1=C(C)Nc2nc3c(c(N)c2C1c1cccnc1)CCCC3 (stereo unspecified) | < 4.00 | 7.33 | 6.80 | – | –
CCOC(=O)C1=C(C)Nc2nc3c(c(N)c2C1c1ccc(OC)cc1)CCCC3 (stereo unspecified) | – | – | – | – | inhibition (Acetylcholinesterase [3]): 30.7%; inhibition [4]: 34.9%
CN1C(C(=O)Nc2ccccn2)=C(O)c2ccccc2S1(=O)=O [PIROXICAM] | – | – | – | 0.4 ×10⁻⁶ cm/s | –
CCOC(=O)C1=C(C)Nc2nc3c(c(N)c2C1c1ccc(OC)c(OC)c1)CCCC3 (stereo unspecified) | < 4.00 | 6.99 | 7.35 | – | –
CCn1cc(C(=O)O)c(=O)c2cc(F)c(N3CCNCC3)nc21 [ENOXACIN] | – | – | – | 0.6 ×10⁻⁶ cm/s | –
CCOC(=O)C1=C(C)Nc2nc3c(c(N)c2C1c1ccc(-c2ccccc2)cc1)CCCC3 (stereo unspecified) | < 4.00 | 7.05 | 7.15 | – | –
CCn1cc(C(=O)O)c(=O)c2cc(F)c(N3CCNC(C)C3)c(F)c21 (stereo unspecified) [LOMEFLOXACIN] | – | – | – | 0.5 ×10⁻⁶ cm/s | –
